From patent publication US20230095836A1, “SUBSTITUTED 5,6-DIPHENYL-3(2H)-PYRIDAZINONES FOR USE AS FUNGICIDES” (FMC Corporation, priority 2020, published 2023)

Columns and labels:
Assay type in all cases: in vivo
Zymoseptoria tritici = assay: Test A: test solution sprayed on wheat seedlings, inoculated next day with Zymoseptoria tritici (wheat leaf blotch); disease rating (100 = 100% disease control, 0 = no control; dash = not tested)
Method: The resulting test suspensions were then used in Tests A-F. The test solution was sprayed to the point of run-off on wheat seedlings. The following day the seedlings were inoculated with a spore suspension of Zymoseptoria tritici (the causal agent of wheat leaf blotch) and incubated in a saturated atmosphere at 24° C. for 48 h, and then moved to a growth chamber at 20° C. for 17 days, after which time disease ratings were made. A rating of 100 indicates 100% disease control and a rating of 0 indicates no disease control (relative to the controls). A dash (—) indicates the compound was not tested.

[1] = tested on: Puccinia recondita f. sp. tritici; assay: Test B: test solution sprayed on wheat seedlings, inoculated next day with Puccinia recondita f. sp. tritici (wheat leaf rust); disease rating (100 = 100% disease control, 0 = no control; dash = not tested)
From the text: The resulting test suspensions were then used in Tests A-F. The test solution was sprayed to the point of run-off on wheat seedlings. […] A rating of 100 indicates 100% disease control and a rating of 0 indicates no disease control (relative to the controls). A dash (—) indicates the compound was not tested.

[2] = tested on: Blumeria graminis f. sp. tritici; assay: Test C: test suspension sprayed on wheat seedlings, inoculated next day with Blumeria graminis f. sp. tritici (wheat powdery mildew); visual disease rating (100 = 100% disease control, 0 = no control; dash = not tested)
Method: The resulting test suspensions were then used in Tests A-F. The test suspension was sprayed to the point of run-off on wheat seedlings. The following day the seedlings were inoculated with a spore dust of Blumeria graminis f. sp. tritici, (also known as Erysiphe graminis f. sp. tritici, the causal agent of wheat powdery mildew) and incubated in a growth chamber at 20° C. for 8 days, after which time visual disease ratings were made. A rating of 100 indicates 100% disease control and a rating of 0 indicates no disease control (relative to the controls). A dash (—) indicates the compound was not tested.

Phakopsora pachyrhizi = assay: Test D: test solution sprayed on soybean seedlings, inoculated next day with Phakopsora pachyrhizi (Asian soybean rust); visual disease rating (100 = 100% disease control, 0 = no control; dash = not tested)
From the text: General protocol for preparing test suspensions for Tests A-F: the test compounds were first dissolved in acetone in an amount equal to 3% of the final volume and then suspended at the desired concentration (in ppm) in acetone and purified water (50/50 mix by volume) containing 250 ppm of the surfactant PEG400 (polyhydric alcohol esters). The resulting test suspensions were then used in Tests A-F.
The test solution was sprayed to the point of run-off on soybean seedlings. The following day the seedlings were inoculated with a spore suspension of Phakopsora pachyrhizi (the causal agent of Asian soybean rust) and incubated in a saturated atmosphere at 22° C. for 24 h and then moved to a growth chamber at 22° C. for 8 days, after which time visual disease ratings were made.
A rating of 100 indicates 100% disease control and a rating of 0 indicates no disease control (relative to the controls). A dash (—) indicates the compound was not tested.

Botrytis cinerea = assay: Test E: test suspension sprayed on tomato seedlings, inoculated next day with Botrytis cinerea (tomato Botrytis); visual disease rating (100 = 100% disease control, 0 = no control; dash = not tested)
Method: (§1) The resulting test suspensions were then used in Tests A-F. The test suspension was sprayed to the point of run-off on tomato seedlings. The following day the seedlings were inoculated with a spore suspension of Botrytis cinerea (the causal agent of tomato Botrytis) and incubated in a saturated atmosphere at 20° C. for 48 h, and then moved to a growth chamber at 24° C. for 3 days, after which time visual disease ratings were made. A rating of 100 indicates 100% disease control and a rating of 0 indicates no disease control (relative to the controls). A dash (—) indicates the compound was not tested.

Alternaria solani = assay: Test F: test suspension sprayed on tomato seedlings, inoculated next day with Alternaria solani (tomato early blight); visual disease rating (100 = 100% disease control, 0 = no control; dash = not tested)
Method: as §1, with “Alternaria solani” for “Botrytis cinerea”, “early blight)” for “Botrytis)”, “27°” for “20°”, “20°” for “24°”

| Structure (SMILES) | Test A disease control rating (Zymoseptoria tritici; 50 ppm) [%] | Test B disease control rating ([1]; 50 ppm) [%] | Test C disease control rating ([2]; 50 ppm) [%] | Test D disease control rating (Phakopsora pachyrhizi; 50 ppm) [%] | Test E disease control rating (Botrytis cinerea; 50 ppm) [%] | Test F disease control rating (Alternaria solani; 50 ppm) [%] | other results |
| --- | --- | --- | --- | --- | --- | --- | --- |
| COc1cc(OC)c([N+](=O)[O-])c(-c2nn(C)c(=O)cc2-c2c(F)cccc2F)c1Cl [Compound 31] | 0 | 9 | 0 | 0 | 0 | 0 | – |
| CCn1nc(-c2cc(OC)cc(OC)c2Cl)c(-c2c(F)cccc2F)cc1=O [Compound 8] | 100 | 96 | 97 | 75 | 99 | 0 | – |
| CCn1nc(-c2cc(OC)cc(OC)c2Cl)c(-c2c(F)cccc2F)c(OC)c1=O [Compound 75] | 100 | 99 | 98 | 69 | 97 | 0 | – |
| CCn1nc(-c2cc(OC)cc(OC)c2Br)c(-c2c(F)cccc2F)c(Br)c1=O [Compound 16] | 99 | 97 | 97 | 84 | 99 | 94 | – |
| CCc1c(-c2c(F)cccc2F)c(-c2cc(OC)ccc2Cl)nn(C)c1=O [Compound 179, 6-(2-chloro-5-methoxyphenyl)-5-(2,6-difluorophenyl)-4-ethyl-2-methyl-3(2H)-pyridazinone] | – | – | – | – | – | – | pest or weed control at 50 ppm (Zymoseptoria tritici; 50 ppm): 100%; pest or weed control at 50 ppm ([1]; 50 ppm): 100%; pest or weed control at 50 ppm ([2]; 50 ppm): 100%; pest or weed control at 50 ppm (Phakopsora pachyrhizi; 50 ppm): 100%; pest or weed control at 50 ppm (Botrytis cinerea; 50 ppm): 94%; pest or weed control at 50 ppm (Alternaria solani; 50 ppm): 100% |
| CC(=O)c1c(-c2ccc(F)cc2Cl)c(-c2ccc(F)cc2Cl)nn(C)c1=O [Compound 124] | 100 | 0 | 95 | 73 | 88 | 0 | – |
| CCn1nc(-c2ccc(F)cc2Cl)c(-c2ccc(F)cc2Cl)cc1=O [Compound 11] | – | – | – | – | – | – | Test A disease control rating (Zymoseptoria tritici; 250 ppm): 2%; Test B disease control rating ([1]; 250 ppm): 9%; Test C disease control rating ([2]; 250 ppm): 64%; Test D disease control rating (Phakopsora pachyrhizi; 250 ppm): 0%; Test E disease control rating (Botrytis cinerea; 250 ppm): 87%; Test F disease control rating (Alternaria solani; 250 ppm): 0% |
| Cn1nc(-c2ccc(F)cc2Cl)c(-c2ccc(F)cc2Cl)c(C(F)F)c1=O [Compound 130] | 100 | 100 | – | 77 | 98 | 98 | – |
| Cn1nc(-c2ccc(F)cc2Cl)c(-c2ccc(F)cc2Cl)c(C(N)=O)c1=O [Compound 133] | 3 | 0 | – | 0 | 0 | 0 | – |
| COc1cc(C#N)cc(-c2nn(C)c(=O)c(Cl)c2-c2ccc(F)cc2Cl)c1 [Compound 173] | – | 100 | 94 | 84 | 92 | 99 | – |
| CC(F)c1c(-c2ccc(F)cc2Cl)c(-c2ccc(F)cc2Cl)nn(C)c1=O (racemic) [Compound 132] | 100 | 68 | – | 0 | 97 | 0 | – |
| COc1cc(C#N)cc(-c2nn(C)c(=O)c(OC)c2-c2ccc(F)cc2Cl)c1 [Compound 174] | – | 95 | 97 | 30 | 83 | 91 | – |
